These results are taken from ChEMBL document CHEMBL1125761, “Synthesis of water-soluble (aminoalkyl)camptothecin analogues: inhibition of topoisomerase I and antitumor activity” (J Med Chem, 1991).

In one experiment the test system is L1210. The experiment in a line: Inhibitory activity […] bearing L1210 leukemia. It counts as functional, cell-based, Mus musculus.
The species named for experiment [1] is Mus musculus. The experiment in a line: Effect in increasing life span of mice bearing L1210 leukemia. It counts as functional.
The species entered for experiment [2] is Mus musculus. Nature of the experiment: Maximally tolerated dose in mice bearing L1210 leukemia. It counts as functional.
The species named for experiment [3] is Mus musculus. The experiment in a line: Compound tested for maximally tolerated dose in mice bearing L1210 leukemia; No toxicity was observed. It counts as functional.

As a reminder, the IC50 is the concentration needed to halve the response being measured. What is called ILS is how much longer treated animals lived than controls. A lower ILS goes with little gain in survival.

Compound `CC[C@@]1(O)C(=O)OCc2c1cc1n(c2=O)Cc2cc3cc(CN)ccc3nc2-1` returned an IC50 in the experiment with L1210 (Mus musculus, L1210) of 0.09 µM. Further, the ILS in the experiment filed under Mus musculus [1] was determined as 112%. For the same compound, the MTD in the experiment filed under Mus musculus [2] was found to be 160 µM/kg.
Turning to `CC[C@@]1(O)C(=O)OCc2c1cc1n(c2=O)Cc2cc3c(COCCN(C)C)c(O)ccc3nc2-1`, the IC50 in the experiment with L1210 (Mus musculus, L1210) came to 0.18 µM. This compound displayed an ILS in the experiment listed under Mus musculus [1] of 188%. The same compound came in with an MTD in the experiment filed under Mus musculus [2] of 50 µM/kg.
Take `CCC1(O)C(=O)OCc2c1cc1n(c2=O)Cc2c-1nc1ccc(CCN)cc1c2C` (stereo not drawn): in the experiment with L1210 (Mus musculus, L1210), the IC50 was determined as 0.029 µM. For the same compound, the ILS in the experiment listed under Mus musculus [1] is greater than 33%. Further, the MTD in the experiment filed under Mus musculus [2] worked out at 68 µM/kg.
For the compound `CC[C@@]1(O)C(=O)OCc2c1cc1n(c2=O)Cc2cc3ccccc3nc2-1` [CAMPTOTHECIN], the IC50 with L1210 (Mus musculus, L1210) stood at 0.023 µM. In addition, the increase in life span (ILS) in the experiment listed under Mus musculus [1] is 118%. In the experiment listed under Mus musculus [2], this compound came in with an MTD of 22 µM/kg.
For the compound `CC[C@@]1(O)C(=O)OCc2c1cc1n(c2=O)Cc2cc3cc(P(=O)(O)O)ccc3nc2-1`, in the experiment with L1210 (Mus musculus, L1210), 26 µM corresponded to half-maximal inhibition (IC50). In the experiment filed under Mus musculus [3], this compound gave an MTD of 155 µM/kg.
The compound `CC[C@@]1(O)C(=O)OCc2c1cc1n(c2=O)Cc2cc3c(CC#N)c(O)ccc3nc2-1` gave an IC50 in the experiment on L1210 (Mus musculus, L1210) of 0.4 µM. This compound also displayed an increase in lifespan (ILS) in the experiment filed under Mus musculus [1] greater than 200%. Also, the MTD in the experiment listed under Mus musculus [2] was determined as 28 µM/kg.
For `CC[C@@]1(O)C(=O)OCc2c1cc1n(c2=O)Cc2cc3c(CN4CCC(N5CCCCC5)CC4)c(O)ccc3nc2-1`, the midpoint of inhibition with L1210 (Mus musculus, L1210), the IC50, lay at 0.27 µM. Also, the increase in lifespan (ILS) in the experiment listed under Mus musculus [1] is on record as greater than 44%. In the experiment filed under Mus musculus [3], this compound came in with an MTD of 77 µM/kg.
In the experiment on L1210 (Mus musculus, L1210), `CC[C@@]1(O)C(=O)OCc2c1cc1n(c2=O)Cc2cc3c(CN(C)C)cccc3nc2-1` showed a half-maximal inhibitory concentration (IC50) of 0.065 µM. The compound also showed an ILS in the experiment filed under Mus musculus [1] of 88%. Moreover, the MTD in the experiment listed under Mus musculus [2] came to 29 µM/kg.
`CCc1c2c(nc3ccc(OC(=O)N4CCC(N5CCCCC5)CC4)cc13)-c1cc3c(c(=O)n1C2)COC(=O)[C@]3(O)CC` [IRINOTECAN] returned an MTD in the experiment filed under Mus musculus [2] of 245 µM/kg.
`CC[C@@]1(O)C(=O)OCc2c1cc1n(c2=O)Cc2cc3c(CN4CCN(C)CC4)c(O)ccc3nc2-1` came in with an IC50 in the experiment on L1210 (Mus musculus, L1210) of 0.072 µM. In the experiment filed under Mus musculus [1], this compound gave an ILS greater than 200%. This compound had an MTD in the experiment listed under Mus musculus [3] of 74 µM/kg.
For the compound `CC[C@@]1(O)C(=O)OCc2c1cc1n(c2=O)Cc2cc3c(CN4CCOCC4)c(O)ccc3nc2-1`, the concentration for half-maximal inhibition (IC50) in the experiment on L1210 (Mus musculus, L1210) stood at 0.37 µM. Also, in the experiment listed under Mus musculus [1], the increase in life span (ILS) is recorded as 83%. The same compound came in with an MTD in the experiment listed under Mus musculus [2] of 190 µM/kg.
As to `CCC1(O)C(=O)OCc2c1cc1n(c2=O)Cc2c-1nc1ccc(CC#N)cc1c2C` (stereo not drawn), in the experiment on L1210 (Mus musculus, L1210), the half-maximal inhibitory concentration (IC50) came out at 0.0075 µM. The compound also yielded an increase in life span (ILS) in the experiment listed under Mus musculus [1] of 106%. The compound further had an MTD in the experiment listed under Mus musculus [2] of 6.4 µM/kg.
`CC[C@@]1(O)C(=O)OCc2c1cc1n(c2=O)Cc2cc3c(C=O)c(O)ccc3nc2-1`: 0.26 µM corresponded to half-maximal inhibition with L1210 (Mus musculus, L1210) (IC50). In the experiment filed under Mus musculus [1], the ILS is greater than 75%. This compound had an MTD in the experiment filed under Mus musculus [3] of 102 µM/kg.
Regarding `CC[C@@]1(O)C(=O)OCc2c1cc1n(c2=O)Cc2cc3c(C[N+](C)(C)C)c(O)ccc3nc2-1`, the 50% inhibitory concentration (IC50) with L1210 (Mus musculus, L1210) worked out at 0.15 µM. The ILS in the experiment listed under Mus musculus [1] is greater than 200%. The compound further gave an MTD in the experiment filed under Mus musculus [2] of 68 µM/kg.
In the experiment with L1210 (Mus musculus, L1210), `CC[C@@]1(O)C(=O)OCc2c1cc1n(c2=O)Cc2cc3c(CSCCN(C)C)c(O)ccc3nc2-1` showed a concentration for half-maximal inhibition (IC50) of 0.012 µM. In addition, the increase in lifespan (ILS) in the experiment listed under Mus musculus [1] was greater than 112%. For the same compound, the MTD in the experiment listed under Mus musculus [3] came out at 76 µM/kg.
The matching figures for `CC[C@@]1(O)C(=O)OCc2c1cc1n(c2=O)Cc2cc3c(CNCCN(C)C)c(O)ccc3nc2-1`: 0.049 µM, greater than 94% and 78 µM/kg.
Regarding `CC[C@@]1(O)C(=O)OCc2c1cc1n(c2=O)Cc2cc3c(CNCCO)c(O)ccc3nc2-1`, the IC50 in the experiment on L1210 (Mus musculus, L1210) worked out at 0.25 µM. For the same compound, the increase in life span (ILS) in the experiment listed under Mus musculus [1] worked out at 62%. The MTD in the experiment filed under Mus musculus [2] turned out to be 82 µM/kg.
In the experiment with L1210 (Mus musculus, L1210), `CC[C@@]1(O)C(=O)OCc2c1cc1n(c2=O)Cc2cc3c(N)cccc3nc2-1` [9-AMINOCAMPTOTHECIN] yielded a half-inhibitory concentration (IC50) of 0.012 µM. In the experiment listed under Mus musculus [1], this compound had an ILS of 94%. This compound registered an MTD in the experiment listed under Mus musculus [2] of 8.9 µM/kg.
The corresponding values for `CCOCc1c(O)ccc2nc3c(cc12)Cn1c-3cc2c(c1=O)COC(=O)[C@]2(O)CC` are 0.048 µM, 125% and 56 µM/kg.
Regarding `CC[C@@]1(O)C(=O)OCc2c1cc1n(c2=O)Cc2cc3c(CNC4CC4)c(O)ccc3nc2-1`, in the experiment with L1210 (Mus musculus, L1210), 0.13 µM corresponded to half-maximal inhibition (IC50). In addition, the ILS in the experiment listed under Mus musculus [1] is reported as 131%. In addition, the MTD in the experiment listed under Mus musculus [2] was determined as 48 µM/kg.
Compound `CC[C@@]1(O)C(=O)OCc2c1cc1n(c2=O)Cc2cc3cc(O)ccc3nc2-1` [HYDROXYCAMPTOTHECIN] registered an IC50 with L1210 (l1210) of 0.018 µM. Also, the ILS in the experiment filed under Mus musculus [1] came out at 78%. The same compound came in with an MTD in the experiment filed under Mus musculus [2] of 21 µM/kg.
Take `CCc1c2c(nc3ccc(O)cc13)-c1cc3c(c(=O)n1C2)COC(=O)[C@]3(O)CC` [7-ETHYL-10-HYDROXYCAMPTOTHECIN]: the ILS in the experiment filed under Mus musculus [1] is recorded as 144%. In addition, the MTD in the experiment listed under Mus musculus [2] was found to be 86 µM/kg.
`CC[C@@]1(O)C(=O)OCc2c1cc1n(c2=O)Cc2cc3cc(C#N)ccc3nc2-1` returned a concentration for half-maximal inhibition (IC50) in the experiment with L1210 (Mus musculus, L1210) of 0.08 µM. For the same compound, the ILS in the experiment listed under Mus musculus [1] is listed as 100%. Further, the MTD in the experiment filed under Mus musculus [2] amounted to 7.8 µM/kg.
Compound `CC[C@@]1(O)C(=O)OCc2c1cc1n(c2=O)Cc2cc3c(C)cccc3nc2-1` came in with a 50% inhibitory concentration (IC50) in the experiment with L1210 (Mus musculus, L1210) of 0.07 µM. The ILS in the experiment filed under Mus musculus [1] is greater than 200%. This compound also came in with an MTD in the experiment listed under Mus musculus [2] of 15 µM/kg.
The corresponding values for `CCC1(O)C(=O)OCc2c1cc1n(c2=O)Cc2c-1nc1ccccc1c2CCNC` (stereo not drawn) are 0.044 µM, 43% and 122 µM/kg.
`CCC1(O)C(=O)OCc2c1cc1n(c2=O)Cc2c-1nc1ccccc1c2CCN(C)C(=O)OCc1ccccc1` (stereo not drawn) registered a half-maximal inhibitory concentration (IC50) in the experiment on L1210 (Mus musculus, L1210) of 0.062 µM. The compound further yielded an increase in life span (ILS) in the experiment filed under Mus musculus [1] of 62%. The compound also registered an MTD in the experiment listed under Mus musculus [2] of 128 µM/kg.
Compound `CC[C@@]1(O)C(=O)OCc2c1cc1n(c2=O)Cc2cc3c(CCN)c(O)ccc3nc2-1` had a concentration for half-maximal inhibition (IC50) with L1210 (Mus musculus, L1210) of 0.36 µM. This compound had an increase in life span (ILS) in the experiment listed under Mus musculus [1] of 75%. The compound also showed an MTD in the experiment listed under Mus musculus [2] of 210 µM/kg.
The matching figures for `CC[C@@]1(O)C(=O)OCc2c1cc1n(c2=O)Cc2cc3c(CNC4CCCCC4)c(O)ccc3nc2-1`: 0.056 µM, greater than 200% and 47 µM/kg.
Take `CC[C@@]1(O)C(=O)OCc2c1cc1n(c2=O)Cc2cc3c(CN(C)C)c(O)ccc3nc2-1` [TOPOTECAN]: the increase in lifespan (ILS) in the experiment listed under Mus musculus [1] is listed as 173%. The compound also returned an MTD in the experiment listed under Mus musculus [2] of 30 µM/kg.
The compound `CC[C@@]1(O)C(=O)OCc2c1cc1n(c2=O)Cc2cc3c(CN(C)c4ccccc4)c(O)ccc3nc2-1` registered an IC50 in the experiment on L1210 (Mus musculus, L1210) of 0.069 µM. In the experiment listed under Mus musculus [1], this compound returned an ILS of 138%. In the experiment listed under Mus musculus [2], this compound had an MTD of 83 µM/kg.
Compound `CC[C@@]1(O)C(=O)OCc2c1cc1n(c2=O)Cc2cc3c(CN4CCOCC4)cccc3nc2-1` gave an IC50 in the experiment on L1210 (Mus musculus, L1210) of 0.69 µM. This compound showed an increase in lifespan (ILS) in the experiment filed under Mus musculus [1] of 144%. Moreover, the MTD in the experiment listed under Mus musculus [2] is 29 µM/kg.
